Measured values: patent US20050267182A1, “Urea derivatives as FLT-3 modulators” (Ambit Biosciences Corporation, priority 2003, published 2005)

Assays:
MV4,11 cells = experiment: FLT3 assay using MV4,11 cells (cellular proliferation, MTS); type: cell-based, human; conditions: cell assay code CS0001; for IC50: Homo sapiens, MV4-11
Protocol: The ability of FLT3 kinase inhibitors to inhibit cellular proliferation was also examined. MV4:11 was a cell line derived from a patient with acute myelogenous leukemia.
FLT3 Assay Using MV4,11 Cells
MV4,11 cells were grown in an incubator @ 37° C. in 5% CO2 in Medium 2 (RPMI, 10% FBS, 4 mM glutamine, Penn/Strep). The cells were counted daily and the cell density was kept between 1e5 and 8e5 cells/ml.
Day One: Enough cells were harvested for experiments to be conducted in 50 ml conical tubes. The harvested cells were spun at 500 g for 5 min at 4° C., the supernatant was then aspirated and the cells were resuspended in the starting volume of 1×PBS. The cells were again spun at 500 g for 5 min at 4° C. and the supernatant again aspirated. The cells were then resuspended in medium 3 (DMEM w/ glut, 10% FBS, Penn/Strep) to a density of 4e5 cells/ml and incubated (37° C. in 5% CO2 O/N.
Day Two: The cells were counted and enough medium 3 was added to decrease density to 2e5 cells/ml. 50 ul (10,000 cells) was aliquoted into each well of a 96 well optical plate using multichannel pipetman. The compound plate was then set up by aliquoting 3 μl of negative control (DMSO) into column 1 of a 96 well 300 ul polypropylene plate, aliquoting 3 μt of positive control (10 mM AB20121) into column 12 of plate, and aliquoting 3 μl of appropriate compounds from serial dilutions into columns 2-11. To each well, 150 μl of Medium 3 was added and 50 μl of compound/medium mixture from compound plate into rows of optical plate in duplicate. The cells were then incubated @ 37° C. in 5% CO2 for 3 days.
Day Five: MTS was thawed in a H2O bath. 20 μl of MTS was added to each well of optical plate and the cells were incubated (37° C. in 5% CO2 for 2 hours. The plate was then placed on a plate shaker for 30 seconds on high speed.

FLT3 = biological target: T1, FLT3 (Homo sapiens, UniProt P36888); experiment: Binding constant (Kd) measurement, phage-displayed kinase competition binding assay; conditions: for Binding Assay: FLT3(JMminus): FLT3(JMminus) construct; for Binding Assay: FLT3(DKIN) / Kd: FLT3(DKIN) construct
T1 construct: FLT3(DKIN); made in house
T1 sequence (P36888 610-943 limits assumed): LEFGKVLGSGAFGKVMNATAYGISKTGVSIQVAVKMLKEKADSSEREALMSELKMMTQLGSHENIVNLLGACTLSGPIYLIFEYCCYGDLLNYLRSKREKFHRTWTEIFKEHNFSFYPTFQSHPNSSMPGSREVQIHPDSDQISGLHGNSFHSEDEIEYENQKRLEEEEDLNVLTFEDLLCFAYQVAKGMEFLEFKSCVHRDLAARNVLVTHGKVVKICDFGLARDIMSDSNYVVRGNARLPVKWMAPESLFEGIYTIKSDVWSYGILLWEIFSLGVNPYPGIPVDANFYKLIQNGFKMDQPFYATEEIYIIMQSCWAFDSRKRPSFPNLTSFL
Text: Binding Constant (Kd) Measurements for Small-Molecule-Kinase Interactions
The term “ND” represents non-determined values.

CS0002 = experiment: Cell Assay: CS0002; type: cell-based; conditions: cell assay code CS0002

Compound | Cell Assay: CS0001:IC50 (MV4,11 cells) | Binding Assay: FLT3(JMminus) (FLT3) | Cell Assay: CS0002:IC50 (CS0002) | Binding Assay: FLT3(DKIN) (FLT3) | IC50 (CS0002) [µM] | IC50 (MV4,11 cells) [µM] | Kd (FLT3) [µM]
CC(C)(C)c1cc(NC(=O)Nc2ccc([N+](=O)[O-])cc2)no1 [Compound A21] | + + + | + + + | + + |  |  |  | 
CC(C)(C)c1cc(NC(=O)Nc2ccc(NC(=O)c3ccc(Oc4ccnc(C(=O)O)c4)cc3)cc2)no1 [Compound N166] | + + + | + + + + | + + |  |  |  | 
COc1cc(OC)nc(Nc2cccc(C(=O)Nc3ccc(NC(=O)Nc4cc(C(C)(C)C)on4)cc3)c2)n1 [Compound N49] | + + + + |  | + + + | + + + + |  |  | 
CC(C)(C)c1cc(NC(=O)Nc2ccc(NC(=O)c3cccnc3C(=O)O)cc2)no1 [Compound N165] | + + + + | + + + |  |  | > 10 |  | 
COc1cc(OC)nc(N(C)c2cccc(C(=O)Nc3ccc(NC(=O)Nc4ccon4)cc3)c2)n1 [Compound N53] | + + + |  | + + | + + + + |  |  | 
CC(C)c1cc(NC(=O)Nc2ccc(NC(=O)C3CCN(c4ncc(C(F)(F)F)cc4Cl)CC3)cc2)no1 [Compound N59] | + + + + |  |  | + + + | > 10 |  | 
Cc1nc(-c2ccccc2)sc1C(=O)Nc1ccc(NC(=O)Nc2cc(C(C)(C)C)on2)cc1 [Compound N181] | + + + + | + + + + | + + |  |  |  | 
CC(C)(C)c1cc(NC(=O)Nc2ccc(C(=O)/C=C/c3ccncc3)cc2)no1 | + + + | + + + + |  |  | > 10 |  | 
COc1cc(OC)nc(Sc2ccccc2C(=O)Nc2ccc(NC(=O)Nc3cc(C(C)(C)C)on3)cc2)n1 [Compound N47] | + + + |  | + + + | + + + + |  |  | 
CC(C)(C)c1cc(NC(=O)Nc2ccc3c(c2)OCO3)no1 [Compound A56] | + + + | + + + |  |  | > 10 |  | 
CC(C)(C)c1cc(NC(=O)Nc2ccc(NC(=O)c3cc([N+](=O)[O-])ccn3)cc2)no1 [Compound N7] |  |  |  | + + + + | > 10 |  | 
COC(=O)c1cccc(Sc2ncc(NC(=O)Nc3cc(C(C)(C)C)on3)s2)c1 [Compound O8] | + + + | + + + + | + + |  |  |  | 
CC(C)(C)c1cc(NC(=O)Nc2ccc(NC(=O)c3nccnc3C(N)=O)cc2)no1 [Compound N138] | + + |  |  | + + + + | > 10 |  | 
CC(C)c1sc(Cl)nc1C(=O)Nc1ccc(NC(=O)Nc2cc(C(C)(C)C)on2)cc1 [Compound N75] |  | + + + + | + + |  |  | > 10 | 
Cc1nc(-c2ccc(Cl)cc2)sc1C(=O)Nc1ccc(NC(=O)Nc2cc(C(C)(C)C)on2)cc1 [Compound N184] | + + + + | + + + + | + + |  |  |  | 
CC(C)(C)c1cc(NC(=O)Nc2ccc(OCc3ccccc3)cc2)on1 [Compound G30] | + + + + |  | + + | + + + + |  |  | 
Cn1nc(C(F)(F)F)c(C(=O)Nc2ccc(NC(=O)Nc3cc(C(C)(C)C)on3)cc2)c1Cl [Compound N68] | + + + |  | + + + | + + + + |  |  | 
CCOC(=O)c1cccc(C(=O)Nc2ccc(NC(=O)Nc3cc(C(C)(C)C)on3)cc2)n1 [Compound N164] | + + + + | + + + + | + + |  |  |  | 
CCc1ccc(C(=O)Nc2ccc(NC(=O)Nc3cc(C(C)(C)C)on3)cc2)cc1 [Compound N32] | + + + |  |  | + + + + | > 10 |  | 

Compound | Cell Assay: CS0001:IC50 (MV4,11 cells) | Binding Assay: FLT3(JMminus) (FLT3) | Cell Assay: CS0002:IC50 (CS0002) | Binding Assay: FLT3(DKIN) (FLT3) | IC50 (CS0002) [µM] | IC50 (MV4,11 cells) [µM] | Kd (FLT3) [µM]
CC(C)(C)c1noc(-c2ccc(NC(=S)Nc3cc(C(C)(C)C)on3)cc2)n1 [Compound P6] | + + + |  |  | + + |  |  | 
CC(C)(C)c1cc(NC(=O)Nc2ccc(NC(=O)c3sccc3CCc3cccc(C(F)(F)F)c3)cc2)no1 [Compound N183] | + + | + + + + |  |  |  |  | 
CC(C)(C)c1cc(NC(=O)Nc2ccc(OCc3ccc(OC(F)(F)F)cc3)cc2)no1 [Compound G5] | + + + |  |  | + + + + |  |  | 
CC(C)(C)c1cc(NC(=O)Nc2ccc(NC(=O)c3cc(Cl)nc(Cl)c3)cc2)no1 [Compound N132] | + + + |  |  | + + + |  |  | 
CC(C)(C)c1cc(NC(=O)Nc2ccc(NC(=O)c3nnsc3Sc3ccc(Cl)cc3)cc2)no1 [Compound N71] | + + | + + + |  |  |  |  | 
CC(C)(C)c1cc(NC(=O)Nc2ccc(NC(=O)Cc3ccccc3)cc2)no1 [Compound N35] | + + |  |  | + + + |  |  | 
CC(C)(C)c1cc(NC(=O)Nc2ccc(NC(=O)c3cc(Cl)cc(Cl)c3)cc2)no1 [Compound N29] | + + + |  |  | + + + |  |  | 
Cc1ccc(-c2cc(C(=O)Nc3ccc(NC(=O)Nc4cc(C(C)(C)C)on4)cc3)c(C)o2)cc1 [Compound N120] | + + + |  |  | + + + + |  |  | 
CC(C)(C)c1cc(NC(=O)Nc2ccc(NC(=O)c3ccccc3O)cc2)no1 [Compound N69] | + + + | + + |  |  |  |  | 
CC(C)(C)c1cc(NC(=O)Nc2ccc(OCc3ccccc3-c3ccccc3)cc2)no1 [Compound G8] | + + |  |  | + + + |  |  | 
CC(C)CCOC(=O)c1nnsc1NC(=O)Nc1ccc(Br)cc1 [Compound Z36] | + + |  |  |  |  |  | > 10
CC(=O)c1c[nH]c(C(=O)Nc2ccc(NC(=O)Nc3cc(C(C)(C)C)on3)cc2)c1 [Compound N43] | + + + |  |  | + + + + |  |  | 
CC(C)(C)c1cc(NC(=O)Nc2ccc(NC(=O)c3ccc(SC(F)(F)F)cc3)cc2)no1 [Compound N33] |  |  |  | + + + |  | > 10 | 
C=CCOc1ccc(NC(=O)Nc2cc(C(C)(C)C)no2)cc1 [Compound G32] | + + + + |  |  | + + + + |  |  | 
CC(C)(C)c1cc(NC(=O)Nc2ccc(NC(=O)c3c[nH]c(=O)nc3-c3ccncc3)cc2)no1 [Compound N19] | + + |  |  | + + |  |  | 
CC(C)(C)c1cc(NC(=O)Nc2ccc(NC(=O)C3=Cc4cc(F)cc(S(C)(=O)=O)c4C3)cc2)no1 [Compound N62] | + + + |  |  | + + + + |  |  | 
Cn1cc(C(=O)Nc2ccc(NC(=O)Nc3cc(C(C)(C)C)on3)cc2)c(C(F)(F)F)n1 [Compound N20] | + + + |  |  | + + + + |  |  | 
CC(C)(C)c1cc(NC(=O)Nc2ccc(NC(=O)c3nccc4ccccc34)cc2)no1 [Compound N117] | + + + + |  |  | + + + + |  |  | 
Cc1sc(NC(=O)Nc2ccc(Cl)cc2)c(C(N)=O)c1C [Compound Z58] | + + |  |  |  |  |  | > 10
